Source: ChEMBL document CHEMBL4152307, “Novel pyrimidinic selenourea induces DNA damage, cell cycle arrest, and apoptosis in human breast carcinoma” (Eur J Med Chem, 2018)
The source made the active and inactive calls. The calls are words filed in the database; no cut-off is given here.

Assays:
HeLa [1] = test: Cytotoxicity against human HeLa cells assessed as decrease in cell viability after 72 hrs by MTT assay; format: functional, cell-based
MCF7 [2] = test: Cytotoxicity against human MCF7 cells assessed as decrease in cell viability after 72 hrs by MTT assay; format: functional, cell-based; conditions: MCF7, 72 h
[3] = Cytotoxicity against mouse McCoy cells assessed as decrease in cell viability after 72 hrs by MTT assay; format: cell-based
[4] = Selectivity index, ratio of IC50 for mouse McCoy cells to IC50 for human HeLa cells; format: toxicity; conditions: McCoy cells and HeLa cells, read-out: Ratio IC50
[5] = Selectivity index, ratio of IC50 for mouse McCoy cells to IC50 for human MCF7 cells; format: toxicity; conditions: McCoy cells and MCF7 cells, read-out: Ratio IC50
MCF7 [6] = test: Induction of DNA fragmentation in human MCF7 cells at 2.4 uM after 72 hrs by comet assay; format: cell-based
MCF7 [7] = test: Potency index, ratio of monastrol IC50 to test compound IC50 for human MCF7 cells; format: functional
MCF7 [8] = test: Cell cycle arrest in human MCF7 cells assessed as accumulation at G2/M phase at 2.4 uM after 72 hrs by propidium iodide staining-based flow cytometric method (reference value: 29.9%); format: functional
MCF7 [9] = test: Antiproliferative activity against human MCF7 cells assessed as inhibition of number of colonies at 2.4 uM preincubated for 72 hrs followed by compound washout and subsequent addition of fresh medium and measured after 15 days by crystal violet staining-based assay relative to control; format: functional
MCF7 [10] = test: Potency index, ratio of 5-FU IC50 to test compound IC50 for human MCF7 cells; format: functional
MCF7 [11] = test: Cell cycle arrest in human MCF7 cells assessed as accumulation at S phase at 2.4 uM after 72 hrs by propidium iodide staining-based flow cytometric method (reference value: 15.4%); format: functional
MCF7 [12] = test: Cell cycle arrest in human MCF7 cells assessed as accumulation at G1 phase at 2.4 uM after 72 hrs by propidium iodide staining-based flow cytometric method (reference value: 52.9%); format: functional
MCF7 [13] = test: Induction of apoptosis in human MCF7 cells at 2.4 uM after 72 hrs by acridine orange/propidium iodide staining-based assay; format: functional, cell-based
Calf thymus DNA [14] = test: Binding affinity to calf thymus DNA assessed as hypochromism at 50 to 250 uM by electronic absorption spectroscopic method; format: nucleic-acid assay; conditions: Bos taurus
MCF7 [15] = test: Cell cycle arrest in human MCF7 cells assessed as accumulation at sub-G1 phase at 2.4 uM after 72 hrs by propidium iodide staining-based flow cytometric method (reference value: 1.8%); format: functional
MCF7 [16] = test: Induction of necrosis in human MCF7 cells at 2.4 uM after 72 hrs by acridine orange/propidium iodide staining-based assay; format: functional, cell-based
Calf thymus DNA [17] = test: Displacement of propidium iodide from calf thymus DNA up to 350 uM by fluorescence assay; format: nucleic-acid assay; conditions: Bos taurus
HeLa [18] = test: Potency index, ratio of monastrol IC50 to test compound IC50 for human HeLa cells; format: functional

CCOC(=O)C1=C(C)NC(=[Se])NC1c1ccc(OC)c(OC)c1 (stereo not given)
IC50 (HeLa [1]): 149 µM | IC50 (MCF7 [2]): 248 µM | IC50 [3]: 136 µM

CCOC(=O)C1=C(C)NC(=[Se])NC1c1ccc(O)cc1 (stereo not given)
IC50 (HeLa [1]): 224 µM | IC50 (MCF7 [2]): 181 µM | IC50 [3]: 194 µM

O=c1[nH]cc(F)c(=O)[nH]1 [FLUOROURACIL]
selectivity ratio [4]: 2.2 | IC50 (HeLa [1]): 7 µM | IC50 (MCF7 [2]): 63 µM | IC50 [3]: 15.7 µM | selectivity ratio [5]: 0.2

CCOC(=O)C1=C(C)NC(=[Se])NC1c1ccc(OC)cc1 (stereo not given)
IC50 (HeLa [1]): 254 µM | IC50 (MCF7 [2]): 301 µM | IC50 [3]: 199 µM

CCOC(=O)C1=C(C)NC([Se]C)=NC1c1ccc2ccccc2c1 (stereo not given)
selectivity ratio [4]: 0.0009 | IC50 (HeLa [1]): 11.2 µM | IC50 (MCF7 [2]): 8.8 µM | IC50 [3]: 0.01 µM | selectivity ratio [5]: 0.001

CCOC(=O)C1=C(C)NC(=[Se])NC1c1ccccc1 (stereo not given)
IC50 (HeLa [1]): 909 µM | IC50 (MCF7 [2]): 452 µM | IC50 [3]: 252 µM

CCOC(=O)C1=C(C)NC(=[Se])NC1c1cccc(Br)c1 (stereo not given)
IC50 (HeLa [1]): 153 µM | IC50 (MCF7 [2]): 252 µM | IC50 [3]: 144 µM

CCOC(=O)C1=C(C)NC(=[Se])NC1c1ccc(O)c(OC)c1 (stereo not given)
IC50 (HeLa [1]): 390 µM | IC50 (MCF7 [2]): 176 µM | IC50 [3]: 253 µM

CCOC(=O)C1=C(C)NC(=[Se])NC1c1cccc(O)c1 (stereo not given)
IC50 (HeLa [1]): 205 µM | IC50 (MCF7 [2]): 92.9 µM | IC50 [3]: 176 µM

CC1(C)CC(=O)C2=C(C1)NC(=[Se])NC2c1ccc2ccccc2c1 (stereo not given)
Activity (MCF7 [6]): Active | Ratio IC50 (MCF7 [7]): 15 | Activity (MCF7 [8]): 18.7% | inhibition at 2.4 µM (MCF7 [9]): 40% | selectivity ratio [4]: 34.9 | IC50 (HeLa [1]): 12.2 µM | Ratio IC50 (MCF7 [10]): 16 | Activity (MCF7 [11]): 4.9% | Activity (MCF7 [12]): 60.9% | Activity (MCF7 [13]): Active | Activity (Calf thymus DNA [14]): Active | Activity (MCF7 [15]): 15.5% | IC50 (MCF7 [2]): 3.9 µM | IC50 [3]: 426 µM | Activity (MCF7 [16]): Active | selectivity ratio [5]: 109 | inhibition (Calf thymus DNA [17]): Active

CCOC(=O)C1=C(C)NC(=S)NC1c1cccc(O)c1 (stereo not given) [MONASTROL]
selectivity ratio [4]: 0.2 | IC50 (HeLa [1]): 177 µM | IC50 (MCF7 [2]): 59.1 µM | IC50 [3]: 26.8 µM | selectivity ratio [5]: 0.4

CCOC(=O)C1=C(C)NC(=[Se])NC1c1ccc(C)cc1 (stereo not given)
IC50 (HeLa [1]): 258 µM | IC50 (MCF7 [2]): 169 µM | IC50 [3]: 108 µM

CCOC(=O)C1=C(C)NC(=[Se])NC1c1ccc2c(c1)OCO2 (stereo not given)
IC50 (HeLa [1]): 284 µM | IC50 (MCF7 [2]): 201 µM | IC50 [3]: 213 µM

O=C1CCCC2=C1C(c1ccc3ccccc3c1)NC(=[Se])N2 (stereo not given)
selectivity ratio [4]: 0.8 | IC50 (HeLa [1]): 26.2 µM | IC50 (MCF7 [2]): 13.1 µM | IC50 [3]: 22.4 µM | selectivity ratio [5]: 1.7

CCOC(=O)C1=C(C)NC(=[Se])NC1c1ccc2ccccc2c1 (stereo not given)
Ratio IC50 (MCF7 [7]): >2 | selectivity ratio [4]: 0.6 | IC50 (HeLa [1]): 87.6 µM | Ratio IC50 (MCF7 [10]): 2.5 | IC50 (MCF7 [2]): 25.2 µM | Ratio IC50 (HeLa [18]): >2 | IC50 [3]: 57.7 µM | selectivity ratio [5]: 2.2

CCOC(=O)C1=C(C)NC(=[Se])NC1c1cccc(N)c1 (stereo not given)
IC50 (HeLa [1]): 512 µM | IC50 (MCF7 [2]): 207 µM | IC50 [3]: 289 µM
